Patent US9428542B2, “Lupane triterpenoid derivatives and pharmaceutical use thereof” (priority 2012, dated 2016)

Assays:
HIV-1IIIB = assay: HIV-1 full replication assay (HIV-1IIIB-infected MT-2 cells, supernatant read out on TZM-bl cells, β-Gal); assay type: cell-based; details: Human immunodeficiency virus 1, MT2, 72 h, inhibiting HIV-1IIIB replication in MT-2 cells, 3 days; read-out: IC50 (PM)
Experimental: The antiviral activity of the compounds of the present invention was determined in a HIV-1 full replication assay.
In this assay, MT-2 cells that are infected with HIV-1IIIB were co-cultured with different concentration of the tested compounds for 3 days and then supernatant is transferred into new 384-well plates containing TZM-bl cells (also called JC53-bl). TZM-bl cells that could be infected by various kinds of HIV-1 strains stably express a great amount of HIV-1 receptor, co-receptor CD4 molecular, and co-receptor CXCR4 and CCR5. TZM-bl cells harbor LTR-luciferase and β-gal two report genes. The expression of luciferase and β-gal reporter directed by HIV-1 LTR can be activated by Tat protein generated after HIV infection, and the quantity of expression is proportional to the quantity of HIV-1. Compounds that interfere with virus replication in MT-2 cells, maturation of the virus, or post-entry steps in the HIV lifecycle decrease the luciferase signal or β-gal signal. In this experiment, BVM (Bevirimat, PA-457) is used as a positive control drug.
Method for Inhibiting HIV-1 Replication Assay:
The MT-2 cells are infected at a Multiciplicity (MOI) of 0.01 TCID50, and then the MT-2 cells suspension was diluted to a needed concentration. 90 μl of the MT-2 cells suspension from above was added into 384-well plates containing 10 μl of the tested compounds.
Compounds were dissolved in DMSO and tested as 11 points 3-fold serial dilutions. After addition of cells to compound plates, plates were placed to humidified 5% CO2 37 incubator for 3 days. 10 μl of cells culture supernatant from the incubated plates was transferred into new black 384-well plates.
Adjusted the TZMb1 cells concentration and 40 μl of TZMb1 cells was added into each well in the black 384-well plates. After addition of the TZMb1 cells to the black plates, black plates were placed to humidified 5% CO2 37 incubator for 24 h, then β-Gal activity was measured.
The anti viral activity %=(measured number-lowest mean number)/(highest mean number-lowest mean number)×100. The IC50 values were calculated by Median Equation and the IC curve was generated by Graphpad Prism V 5.03.
(§1) TC50 is referred to the toxicity in MT-2 cells by the compounds tested at 50% concentration; IC50 is referred to the inhibiting HIV-1IIIB replication in MT-2 cells by the compounds tested at 50% concentration; Therapeutic Index (TI)=TC50/IC50.

MT-2 cells = assay: Compounds' cytotoxicity assay in MT-2 cells (CellTiter-Glo); assay type: cell-based; parameters: unit not given here; details: toxicity in MT-2 cells, 3 days
Experimental: 3. Method for Compounds' Cytotoxicity Assay:
The MT-2 cells are diluted to a needed concentration. 90 μl of the MT-2 cells suspension was added into 384-well plates containing 10 μl of the tested compounds. Compounds were dissolved in DMSO and tested as 11 points 3-fold serial dilutions. After addition of cells to compound plates, plates were placed to humidified 5% CO2 37 incubator for 3 days. The Luciferase activity was measured by CellTiter-Glo® Luminescent Cell Viability Assay kit (Promega Corp., WI, USA).
as §1

## CC(C)C1=C2[C@H]3CC[C@@H]4[C@@]5(C)CC[C@H](OC(=O)CC(C)(C)C(=O)O)C(C)(C)[C@@H]5CC[C@@]4(C)[C@]3(C)CC[C@@]2([C@H](O)c2nnc(-c3ccc(Cl)cc3)o2)CC1=O [Compound 127-2]
HIV-1IIIB
  IC50: 25 nM
MT-2 cells
  TC50 (PM): 45

## CC(C)C1=C2[C@H]3CC[C@@H]4[C@@]5(C)CC[C@H](OC(=O)CC(C)(C)C(=O)O)C(C)(C)[C@@H]5CC[C@@]4(C)[C@]3(C)CC[C@@]2(c2nnc(Cc3ccc(Cl)cc3)o2)CC1=O [Compound 38]
HIV-1IIIB
  IC50: 1.6 nM
MT-2 cells
  TC50 (PM): 100

## CC(C)C1=C2[C@H]3CC[C@@H]4[C@@]5(C)CC[C@H](OC(=O)CC(C)(C)C(=O)O)C(C)(C)[C@@H]5CC[C@@]4(C)[C@]3(C)CC[C@@]2(c2cc(=O)n(-c3ccc(Cl)cc3)n2C)CC1=O [Compound 98-1]
HIV-1IIIB
  IC50: 1.6 nM
MT-2 cells
  TC50 (PM): 24

## COc1ccc(-n2c(=O)cc([C@@]34CC[C@]5(C)[C@H](CC[C@@H]6[C@@]7(C)CC[C@H](OC(=O)CC(C)(C)C(=O)O)C(C)(C)[C@@H]7CC[C@]65C)C3=C(C(C)C)C(=O)C4)n2C)cn1 [Compound 98-2]
HIV-1IIIB
  IC50: 3 nM
MT-2 cells
  TC50 (PM): 44

## CC(C)C1=C2[C@H]3CC[C@@H]4[C@@]5(C)CC[C@H](OC(=O)CC(C)(C)C(=O)O)C(C)(C)[C@@H]5CC[C@@]4(C)[C@]3(C)CC[C@@]2(c2nnc(Nc3ccc(Cl)cc3)o2)CC1=O [Compound 133-1]
HIV-1IIIB
  IC50: 10 nM
MT-2 cells
  TC50 (PM): 21

## CC(C)C1=C2[C@H]3CC[C@@H]4[C@@]5(C)CC[C@H](OC(=O)CC(C)(C)C(=O)O)C(C)(C)[C@@H]5CC[C@@]4(C)[C@]3(C)CC[C@@]2([C@@H](O)c2nnc(-c3ncc(Cl)cn3)o2)CC1=O [Compound 127-5]
HIV-1IIIB
  IC50: 1 nM
MT-2 cells
  TC50 (PM): 38

## CC(C)C1=C2[C@H]3CC[C@@H]4[C@@]5(C)CC[C@H](OC(=O)CC(C)(C)C(=O)O)C(C)(C)[C@@H]5CC[C@@]4(C)[C@]3(C)CC[C@@]2(c2nnc(-c3ccc(Cl)cc3)s2)CC1=O [Compound 102]
HIV-1IIIB
  IC50: 175 nM
MT-2 cells
  TC50 (PM): 9.93

## CC(C)C1=C2[C@H]3CC[C@@H]4[C@@]5(C)CC[C@H](OC(=O)CC(C)(C)C(=O)O)C(C)(C)[C@@H]5CC[C@@]4(C)[C@]3(C)CC[C@@]2(c2nnc(-c3ccc(Cl)cn3)o2)CC1=O [Compound 27-3]
HIV-1IIIB
  IC50: 1.5 nM
MT-2 cells
  TC50 (PM): 36

## CC(C)C1=C2[C@H]3CC[C@@H]4[C@@]5(C)CC[C@H](OC(=O)CC(C)(C)C(=O)O)C(C)(C)[C@@H]5CC[C@@]4(C)[C@]3(C)CC[C@@]2(c2nnc(-c3ccc(C(F)(F)F)cn3)o2)CC1=O [Compound 27-11]
HIV-1IIIB
  IC50: 25 nM
MT-2 cells
  TC50 (PM): 23

## CC(C)C1=C2[C@H]3CC[C@@H]4[C@@]5(C)CC[C@H](OC(=O)CC(C)(C)C(=O)O)C(C)(C)[C@@H]5CC[C@@]4(C)[C@]3(C)CC[C@@]2(c2nnc(-c3ccncc3)o2)CC1=O [Compound 27-13]
HIV-1IIIB
  IC50: 17 nM
MT-2 cells
  TC50 (PM): 200

## CC(C)C1=C2[C@H]3CC[C@@H]4[C@@]5(C)CC[C@H](OC(=O)CC(C)(C)C(=O)O)C(C)(C)[C@@H]5CC[C@@]4(C)[C@]3(C)CC[C@@]2(Cc2nnc(-c3ccc(Cl)cc3)n2CCN(C)C)CC1=O [Compound 116-1]
HIV-1IIIB
  IC50: ≤ 0.17 nM
MT-2 cells
  TC50 (PM): 35

## CC(C)C1=C2[C@H]3CC[C@@H]4[C@@]5(C)CC[C@H](OC(=O)CC(C)(C)C(=O)O)C(C)(C)[C@@H]5CC[C@@]4(C)[C@]3(C)CC[C@@]2(c2ncc(-c3ccc(Cl)cc3)o2)CC1=O [Compound 65]
HIV-1IIIB
  IC50: 58 nM
MT-2 cells
  TC50 (PM): 17.68

## CC(C)C1=C2[C@H]3CC[C@@H]4[C@@]5(C)CC[C@H](OC(=O)CC(C)(C)C(=O)O)C(C)(C)[C@@H]5CC[C@@]4(C)[C@]3(C)CC[C@@]2(c2cc(=O)n(Cc3ccc(Cl)cn3)n2C)CC1=O [Compound 91-9]
HIV-1IIIB
  IC50: ≤ 0.17 nM
MT-2 cells
  TC50 (PM): 26

## CC(C)C1=C2[C@H]3CC[C@@H]4[C@@]5(C)CC[C@H](OC(=O)CC(C)(C)C(=O)O)C(C)(C)[C@@H]5CC[C@@]4(C)[C@]3(C)CC[C@@]2(Cc2nnc(-c3ccc(Cl)cn3)o2)CC1=O [Compound 22-3]
HIV-1IIIB
  IC50: 1.6 nM
MT-2 cells
  TC50 (PM): 36

## CC(C)C1=C2[C@H]3CC[C@@H]4[C@@]5(C)CC[C@H](OC(=O)CC(C)(C)C(=O)O)C(C)(C)[C@@H]5CC[C@@]4(C)[C@]3(C)CC[C@@]2(Nc2nnc(-c3ncc(Cl)cn3)o2)CC1=O [Compound 141-3]
HIV-1IIIB
  IC50: 1.7 nM
MT-2 cells
  TC50 (PM): 22

## CC(C)C1=C2[C@H]3CC[C@@H]4[C@@]5(C)CC[C@H](OC(=O)CC(C)(C)C(=O)O)C(C)(C)[C@@H]5CC[C@@]4(C)[C@]3(C)CC[C@@]2(Cc2nnc(-c3ccc(C(F)(F)F)cn3)o2)CC1=O [Compound 22-12]
HIV-1IIIB
  IC50: 0.4 nM
MT-2 cells
  TC50 (PM): 31

## CNC(=O)Cn1c(=O)cc([C@@]23CC[C@]4(C)[C@H](CC[C@@H]5[C@@]6(C)CC[C@H](OC(=O)CC(C)(C)C(=O)O)C(C)(C)[C@@H]6CC[C@]54C)C2=C(C(C)C)C(=O)C3)n1C [Compound 91-7]
HIV-1IIIB
  IC50: 0.7 nM
MT-2 cells
  TC50 (PM): 68

## CC(C)C1=C2[C@H]3CC[C@@H]4[C@@]5(C)CC[C@H](OC(=O)CC(C)(C)C(=O)O)C(C)(C)[C@@H]5CC[C@@]4(C)[C@]3(C)CC[C@@]2(Cc2nnc(Cc3ccc(Cl)cc3)o2)CC1=O [Compound 33]
HIV-1IIIB
  IC50: 1.6 nM
MT-2 cells
  TC50 (PM): 18

## CC(C)C1=C2[C@H]3CC[C@@H]4[C@@]5(C)CC[C@H](OC(=O)CC(C)(C)C(=O)O)C(C)(C)[C@@H]5CC[C@@]4(C)[C@]3(C)CC[C@@]2(c2nnc(N(CCN(C)C)c3ccc(Cl)cc3)o2)CC1=O [Compound 133-2]
HIV-1IIIB
  IC50: ≤ 0.17 nM
MT-2 cells
  TC50 (PM): 47

## CC(C)C1=C2[C@H]3CC[C@@H]4[C@@]5(C)CC[C@H](OC(=O)CC(C)(C)C(=O)O)C(C)(C)[C@@H]5CC[C@@]4(C)[C@]3(C)CC[C@@]2(c2cc(=O)n(CC(=O)N(C)C)n2C)CC1=O [Compound 91-8]
HIV-1IIIB
  IC50: 3.3 nM
MT-2 cells
  TC50 (PM): 48

## CC(C)C1=C2[C@H]3CC[C@@H]4[C@@]5(C)CC[C@H](OC(=O)CC(C)(C)C(=O)O)C(C)(C)[C@@H]5CC[C@@]4(C)[C@]3(C)CC[C@@]2(c2cc(=O)n(-c3ccc(Cl)cn3)n2C)CC1=O [Compound 98-7]
HIV-1IIIB
  IC50: ≤ 0.17 nM
MT-2 cells
  TC50 (PM): 200

## CC(C)C1=C2[C@H]3CC[C@@H]4[C@@]5(C)CC[C@H](OC(=O)CC(C)(C)C(=O)O)C(C)(C)[C@@H]5CC[C@@]4(C)[C@]3(C)CC[C@@]2(c2nnc(-c3ccc(Cl)cc3)n2CCN(C)C)CC1=O [Compound 116-3]
HIV-1IIIB
  IC50: 0.55 nM
MT-2 cells
  TC50 (PM): 33

## CC(C)C1=C2[C@H]3CC[C@@H]4[C@@]5(C)CC[C@H](OC(=O)CC(C)(C)C(=O)O)C(C)(C)[C@@H]5CC[C@@]4(C)[C@]3(C)CC[C@@]2(c2cc(=O)n(Cc3ccccc3)n2C)CC1 [Compound 89-2]
HIV-1IIIB
  IC50: 58.4 nM
MT-2 cells
  TC50 (PM): 37

## CC(C)C1=C2[C@H]3CC[C@@H]4[C@@]5(C)CC[C@H](OC(=O)CC(C)(C)C(=O)O)C(C)(C)[C@@H]5CC[C@@]4(C)[C@]3(C)CC[C@@]2(Cc2nnc(-c3cccnc3)o2)CC1=O [Compound 22-9]
HIV-1IIIB
  IC50: 4.3 nM
MT-2 cells
  TC50 (PM): 33

## CC(C)C1=C2[C@H]3CC[C@@H]4[C@@]5(C)CC[C@H](OC(=O)CC(C)(C)C(=O)O)C(C)(C)[C@@H]5CC[C@@]4(C)[C@]3(C)CC[C@@]2(Cc2nnc(-c3ccc(Cl)cc3)o2)CC1=O [Compound 22-1]
HIV-1IIIB
  IC50: 3.3 nM
MT-2 cells
  TC50 (PM): 46

## COc1ccc(-c2nnc(C[C@@]34CC[C@]5(C)[C@H](CC[C@@H]6[C@@]7(C)CC[C@H](OC(=O)CC(C)(C)C(=O)O)C(C)(C)[C@@H]7CC[C@]65C)C3=C(C(C)C)C(=O)C4)o2)nc1 [Compound 22-17]
HIV-1IIIB
  IC50: 2.8 nM
MT-2 cells
  TC50 (PM): 200

## CC(C)C1=C2[C@H]3CC[C@@H]4[C@@]5(C)CC[C@H](OC(=O)CC(C)(C)C(=O)O)C(C)(C)[C@@H]5CC[C@@]4(C)[C@]3(C)CC[C@@]2(c2nnc(-c3ccccc3)o2)CC1=O [Compound 27-2]
HIV-1IIIB
  IC50: 2 nM
MT-2 cells
  TC50 (PM): 100
